# Experimental data from article PMC3679022, “A Cancer Specific Cell-Penetrating Peptide, BR2, for the Efficient Delivery of an scFv into Cancer Cells” (PLoS ONE, 2013).
# System: HCT116 cells
# Assay: Detection of apoptosis by annexin V-FITC / 7-AAD flow cytometry
# Type: cell-based, human
# Conditions: proteins 2 µM, staurosporine 0.5 µM, 24 h
# Protocol: In addition, apoptotic cells were identified by staining with annexin V-FITC (150 ng/ml) and 7 amino-actinomycin D (7-AAD; BD Biosciences, San Diego, CA). 1×10^6 HCT116 cells were treated with PBS, staurosporine (0.5 µM), or peptide-fused scFvs (each, 2 µM) as described above. At the designated time, cells were washed twice with PBS (pH 7.4), harvested and resuspended in 500 µl of binding buffer supplemented with Annexin-V fluos (1∶100 diluted; BioBud, Seoul, Korea), and incubated for 15 min at 25°C in the dark. To detect necrosis, 7AAD was added prior to measurement. Samples were immediately subjected to FACS analysis with a FACSCalibur flow cytometer (FL1 and FL3) and WinMDI software (Joe Trotter, Scripps Research Institute). 1×10^4 cells per sample were analyzed by flow cytometry.
# Figure 5 The BR2-anti-Ras scFv fusion protein promotes apoptosis by blocking Ras signaling in Ras-mutated HCT116 cells. […] The numbers on the top of the quadrants indicate the percentage of apoptotic and late apoptotic/necrotic cells counted from dot plots taken from one representative experiment, performed in triplicate. […] Changes in Ras activity level in HCT116 cells treated with anti-Ras scFv and BR2- and Tat-scFv fusion proteins (each, 1 and 2 µM) were determined by an ELISA-based activity assay; results are expressed as relative Ras activity (%). […]
compound,measurement,value
CN[C@@H]1C[C@H]2O[C@@](C)([C@@H]1OC)n1c3ccccc3c3c4c(c5c6ccccc6n2c5c31)C(=O)NC4 [staurosporine],cells in the apoptotic stage (apoptotic and late apoptotic/necrotic),61.6%
